Assay results: US6977259B2, “Quinoline derivatives and their use as aurora 2 kinase inhibitors” (AstraZeneca AB, priority 2000, dated 2005)

Key:
[1] = target: T1, aurora2 kinase (Homo sapiens, UniProt O14965); assay: In vitro aurora2 kinase inhibition test; assay type: biochemical
T1 construct: made in house; host or cells: Spodoptera frugiperda Sf21 insect cells (baculovirus, pFastBac HTc)
T1 sequence (O14965 1-403): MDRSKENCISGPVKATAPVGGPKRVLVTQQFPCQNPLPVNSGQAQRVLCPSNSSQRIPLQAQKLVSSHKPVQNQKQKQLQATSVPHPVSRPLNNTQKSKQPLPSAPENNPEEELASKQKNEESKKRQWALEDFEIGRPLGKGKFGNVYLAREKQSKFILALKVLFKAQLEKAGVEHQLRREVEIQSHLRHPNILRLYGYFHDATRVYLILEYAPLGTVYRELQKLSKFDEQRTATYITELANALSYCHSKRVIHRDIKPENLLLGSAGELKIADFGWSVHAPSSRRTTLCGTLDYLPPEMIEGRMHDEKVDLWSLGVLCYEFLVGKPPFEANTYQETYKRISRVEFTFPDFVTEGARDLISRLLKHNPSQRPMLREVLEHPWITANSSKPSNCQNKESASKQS

[2] = test system: MCF-7 cells; assay: In vitro cell proliferation assay II (BrdU incorporation); assay type: cell-based; settings: Homo sapiens, MCF7; MCF-7, 48 hours with compound, 2 hour BrdU labelling, ELISA; read-out: concentration giving 50% inhibition of BrdU incorporation
From the text: (§1) (b) In Vitro Cell Proliferation Assays
(§2) These and other assays can be used to determine the ability of a test compound to inhibit the growth of adherent mammalian cell lines, for example the human tumour cell line MCF7.
This assay determines the ability of at test compound to inhibit the incorporation of the thymidine analogue, 5′-bromo-2′-deoxy-uridine (BrdU) into cellular DNA. MCF-7 or other adherent cells were typically seeded at 0.8×10^4 cells per well in DMEM (Sigma Aldrich) without phenol red, plus 10% foetal calf serum, 1% L-glutamine and 1% penicillin/streptomycin (50 μl/well) in 96 well tissue culture treated 96 well plates (Costar) and allowed to adhere overnight. […] The optical density of the wells was then determined at 690 nm wavelength using a Titertek Multiscan plate reader. […]

[3] = test system: MCF-7 cells; assay: In vitro cell proliferation assay 1 (CyQUANT cell density); assay type: cell-based; settings: Homo sapiens, MCF7, 72 h; MCF-7, 3 days with compound, CyQUANT fluorescence; read-out: concentration giving 50% inhibition of cell proliferation
From the text: as §1, §2
MCF-7 (ATCC HTB-22) or other adherent cells were typically seeded at 1×10^3 cells per well (excluding the peripheral wells) in DMEM (Sigma Aldrich) without phenol red, plus 10% foetal calf serum, 1% L-glutamine and 1% penicillin/streptomycin in 96 well tissue culture treated clear plates (Costar). The following day (day 1), the media was removed from a no treatment control plate and the plate stored at −80° C. […] The fluorescence of the wells was then measured using a fluorescence microplate reader (gain 70, 2 reads per well, 1 cycle with excitation 485 nm and emission 530 nm using a CytoFluor plate reader (PerSeptive Biosystems Inc.)). […]

Compound | IC50 [1] [nM] | IC50 [2] [nM] | IC50 [3] [nM]
O=C(Nc1ncc(Nc2ccnc3cc(OCCCN4CCOCC4)ccc23)cn1)c1ccccc1 [Compound 4] | 78.5 | 190 | 185
COc1cc2c(Nc3cnc(NC(=O)c4ccccc4)nc3)ccnc2cc1OCCCN1CCOCC1 [Compound 2] | 59.2 | 460 | 456
